Source: ChEMBL document CHEMBL5390249, “Analysis of structure-activity relationship of indol-3-yl-N-phenylcarbamic amides as potent STING inhibitors” (Bioorg Med Chem, 2023)
Activity calls are given as the source filed them. The calls are words filed in the database; no cut-off is given here.

system: Detroit 551; assay: Cytotoxicity against human Detroit 551 cells assessed as reduction in cell viability by MTS assay; assay type: toxicity, cell-based

SMILES | Activity
CCc1ccc(NC(=O)Nc2c[nH]c3ccccc23)cc1 | Non-Toxic
O=C(Nc1ccc(C(F)(F)F)cc1)Nc1c[nH]c2ccccc12 | Non-Toxic
CC(C)c1ccc(NC(=O)Nc2c[nH]c3ccccc23)cc1 | Non-Toxic
O=C(Nc1ccc(OC(F)(F)F)cc1)Nc1c[nH]c2ccccc12 | Non-Toxic
Cc1ccc(NC(=O)Nc2c[nH]c3ccccc23)cc1Cl | Non-Toxic
O=C(Nc1ccc(Cl)cc1)Nc1c[nH]c2ccccc12 | Non-Toxic

target: Stimulator of interferon genes protein (Homo sapiens) (UniProt Q86WV6); assay: Inhibition of STING in human THP1-Dual KI-hSTING-R232 cells assessed as cGAMP-induced IRF luciferase expression at 1 uM incubated for 2 hrs by QUANTI-Luc reagent based luciferase reporter assay; assay type: cell-based
Sequence (Q86WV6 whole entry): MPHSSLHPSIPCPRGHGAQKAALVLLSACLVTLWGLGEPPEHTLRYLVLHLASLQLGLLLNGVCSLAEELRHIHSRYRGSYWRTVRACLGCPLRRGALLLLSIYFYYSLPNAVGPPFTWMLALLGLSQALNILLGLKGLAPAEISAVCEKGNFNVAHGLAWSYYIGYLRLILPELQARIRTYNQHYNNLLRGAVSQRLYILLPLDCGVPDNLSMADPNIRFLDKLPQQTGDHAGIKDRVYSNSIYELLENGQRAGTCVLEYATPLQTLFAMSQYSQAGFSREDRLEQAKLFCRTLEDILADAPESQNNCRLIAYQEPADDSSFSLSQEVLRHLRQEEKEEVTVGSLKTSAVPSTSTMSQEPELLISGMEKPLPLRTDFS

SMILES | inhibition
Cn1cc(NC(=O)Nc2ccc(OC(F)(F)F)cc2)c2ccccc21 | inactive
CN(C(=O)Nc1c[nH]c2ccccc12)c1ccccc1 | inactive
O=C(Nc1ccc2c(c1)OCCO2)Nc1c[nH]c2ccccc12 | inactive
CC(=O)c1ccc(NC(=O)Nc2cn(C)c3ccccc23)cc1 | inactive
Cn1cc(NC(=O)Nc2ccc(F)c(F)c2)c2ccccc21 | inactive
NC(=O)c1ccc(NC(=O)Nc2c[nH]c3ccccc23)cc1 | inactive
O=C(Nc1c[nH]c2ccccc12)N1Cc2ccccc2C1 | inactive
CCc1ccc(NC(=O)Nc2cn(C)c3ccccc23)cc1 | inactive
Cn1cc(NC(=O)Nc2ccc(F)c(Cl)c2)c2ccccc21 | inactive
Cn1cc(NC(=O)Nc2ccc(C(N)=O)cc2)c2ccccc21 | inactive

Next, values leading:

inhibition | SMILES
inactive | Cc1ccccc1NC(=O)Nc1c[nH]c2ccccc12
inactive | Cc1ccc(NC(=O)Nc2c[nH]c3ccccc23)c(C)c1
inactive | COc1ccc(NC(=O)Nc2c[nH]c3ccccc23)cc1
Active | O=C(Nc1cccc(Cl)c1)Nc1c[nH]c2ccccc12
Active | O=C(Nc1cccc(F)c1)Nc1c[nH]c2ccccc12
inactive | CN(C)c1ccc(NC(=O)Nc2c[nH]c3ccccc23)cc1
inactive | Cc1cccc(NC(=O)Nc2c[nH]c3ccccc23)c1C
inactive | CCc1ccccc1NC(=O)Nc1c[nH]c2ccccc12
Active | COc1cccc(NC(=O)Nc2c[nH]c3ccccc23)c1
Active | Cc1cccc(NC(=O)Nc2c[nH]c3ccccc23)c1
